Data on five compounds can be found in PMC12136037, “Type II kinase inhibitors that target Parkinson’s disease–associated LRRK2” (Science Advances, 2025).

Several values for one entry are separate records, joined by “and”; a condition that tells them apart may be missing. Equal entries are not always repeated.

As a reminder, the IC50 is the point on the concentration scale where inhibition reaches its midpoint. Lower therefore signals inhibition by little substance.

The target in experiment [1] is T1, LRRK2^RCKW (Homo sapiens, UniProt Q5S007).
T1 construct: LRRK2 R1327 to E2527; His6-Z-tag (TEV cleavable) (N, cleaved yes); host or cells: Sf9 insect cells (baculovirus)
T1 sequence (Q5S007 1327-2527): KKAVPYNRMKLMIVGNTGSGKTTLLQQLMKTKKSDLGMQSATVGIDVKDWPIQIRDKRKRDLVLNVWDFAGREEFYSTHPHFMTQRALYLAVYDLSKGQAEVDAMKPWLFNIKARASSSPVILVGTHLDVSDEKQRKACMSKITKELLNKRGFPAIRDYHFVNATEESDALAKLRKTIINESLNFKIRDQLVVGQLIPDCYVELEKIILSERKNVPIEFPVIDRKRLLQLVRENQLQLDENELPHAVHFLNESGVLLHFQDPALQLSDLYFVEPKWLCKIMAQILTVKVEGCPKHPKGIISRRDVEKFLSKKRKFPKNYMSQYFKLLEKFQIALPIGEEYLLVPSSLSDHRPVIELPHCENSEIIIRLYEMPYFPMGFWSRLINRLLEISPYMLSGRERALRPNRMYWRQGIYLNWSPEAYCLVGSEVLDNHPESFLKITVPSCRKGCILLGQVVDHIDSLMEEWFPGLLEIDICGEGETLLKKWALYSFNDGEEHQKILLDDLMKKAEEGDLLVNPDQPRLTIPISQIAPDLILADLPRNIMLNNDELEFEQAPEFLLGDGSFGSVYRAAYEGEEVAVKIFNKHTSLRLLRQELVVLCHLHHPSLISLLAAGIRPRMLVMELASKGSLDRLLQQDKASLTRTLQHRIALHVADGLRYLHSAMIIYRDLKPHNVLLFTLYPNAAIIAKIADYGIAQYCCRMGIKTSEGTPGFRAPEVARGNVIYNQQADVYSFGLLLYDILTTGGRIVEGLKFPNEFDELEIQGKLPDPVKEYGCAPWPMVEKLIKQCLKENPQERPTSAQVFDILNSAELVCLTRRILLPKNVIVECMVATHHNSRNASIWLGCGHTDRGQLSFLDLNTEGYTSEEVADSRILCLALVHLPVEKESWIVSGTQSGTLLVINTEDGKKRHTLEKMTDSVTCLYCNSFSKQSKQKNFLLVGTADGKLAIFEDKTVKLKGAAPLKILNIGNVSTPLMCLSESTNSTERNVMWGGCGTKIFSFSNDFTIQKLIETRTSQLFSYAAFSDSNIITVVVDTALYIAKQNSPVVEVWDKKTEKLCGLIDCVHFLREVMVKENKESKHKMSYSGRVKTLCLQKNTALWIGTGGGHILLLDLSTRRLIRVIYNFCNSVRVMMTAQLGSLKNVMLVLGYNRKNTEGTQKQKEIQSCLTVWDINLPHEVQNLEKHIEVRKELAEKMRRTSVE
The experiment can be described thus: Biochemical LRRK2 activity assay (PhosphoSense, AssayQuant SOX peptide AQT0615). The settings on record: for IC50: LRRK2^RCKW kinase activity, in vitro; for normalized response (LRRK2 activity): normalized to 0% (no kinase) and 100% (no inhibitor) control, two singlicate columns per compound. In short, it runs like this: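 Controls lacked protein and compound (0%) or compound only (100%). IC50 derived by nonlinear regression of normalized response versus log[inhibitor].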

Experiment [2] has as its target T2, ~100 representative kinases (Homo sapiens, UniProt O15264).
T2 construct: Recombinant protein kinase domains with a concentration of 2 μM
T2 sequence (O15264 1-365): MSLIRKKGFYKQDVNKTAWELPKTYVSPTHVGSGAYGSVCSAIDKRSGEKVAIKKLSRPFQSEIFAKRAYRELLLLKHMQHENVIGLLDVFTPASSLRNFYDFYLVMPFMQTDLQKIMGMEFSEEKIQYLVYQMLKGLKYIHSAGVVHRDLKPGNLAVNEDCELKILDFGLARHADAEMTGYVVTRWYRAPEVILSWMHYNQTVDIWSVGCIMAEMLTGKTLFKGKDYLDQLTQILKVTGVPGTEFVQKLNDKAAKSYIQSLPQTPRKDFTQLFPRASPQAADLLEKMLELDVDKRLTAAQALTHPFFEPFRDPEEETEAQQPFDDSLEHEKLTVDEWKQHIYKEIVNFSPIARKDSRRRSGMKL
Description: DSF 100 kinase selectivity screen.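 Further: compound tested at 20 µM.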 To be noted: protein MAPK13; average of three replicates. In kind it is binding. As for the experimental part:
(§1) Recombinant protein kinase domains with a concentration of 2 μM were mixed with a 20 μM compound solution in dimethyl sulfoxide (DMSO), 20 mM Hepes (pH 7.5), and 500 mM NaCl. SYPRO Orange (5000×, Invitrogen) was added as a fluorescence probe (1μl/ml). Subsequently, temperature-dependent protein unfolding profiles were measured using the QuantStudio 5 realtime PCR machine (Thermo Fisher Scientific, Waltham, MA, USA). […] The temperature was raised with a step rate of 3°C/min. […] Differences in melting temperature are given as ΔTm values in degrees Celsius. […]

In experiment [3] the target is T3, ~100 representative kinases (Homo sapiens, UniProt O94804).
T3 construct: Recombinant protein kinase domains with a concentration of 2 μM
Description: DSF 100 kinase selectivity screen.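 Further: compound tested at 20 µM.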 In kind it is binding. The settings on record: Protein STK10; DSF; average of three replicates. The method, then: as §1

Experiment [4] addresses T4, ~100 representative kinases (Homo sapiens, UniProt Q13627).
T4 construct: Recombinant protein kinase domains with a concentration of 2 μM
The experiment can be described thus: DSF 100 kinase selectivity screen.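 Further: compound tested at 20 µM.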 In kind it is binding. The settings on record: Protein DYRK1A; average of three replicates. The method, then: as §1

Experiment [5] has as its target T5, ~100 representative kinases (Homo sapiens, UniProt Q9Y6E0).
T5 construct: Recombinant protein kinase domains with a concentration of 2 μM
Description: DSF 100 kinase selectivity screen.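 Further: compound tested at 20 µM.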 In kind it is binding. The settings on record: protein MST3; average of three replicates. As for the experimental part: as §1

T5 sequence (Q9Y6E0 whole entry, the tested form may be a part): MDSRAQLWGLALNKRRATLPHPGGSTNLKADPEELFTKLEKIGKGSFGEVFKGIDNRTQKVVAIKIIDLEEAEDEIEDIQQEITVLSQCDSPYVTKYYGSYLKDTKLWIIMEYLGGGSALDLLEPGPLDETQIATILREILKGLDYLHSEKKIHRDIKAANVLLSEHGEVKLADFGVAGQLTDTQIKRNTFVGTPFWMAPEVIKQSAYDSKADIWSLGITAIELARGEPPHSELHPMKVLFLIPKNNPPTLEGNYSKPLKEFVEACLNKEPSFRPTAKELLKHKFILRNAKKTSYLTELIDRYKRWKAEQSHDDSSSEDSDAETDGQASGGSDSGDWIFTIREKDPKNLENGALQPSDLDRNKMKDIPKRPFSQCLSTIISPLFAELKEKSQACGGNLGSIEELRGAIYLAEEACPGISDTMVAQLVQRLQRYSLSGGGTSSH
T3 sequence (O94804 whole entry, the tested form may be a part): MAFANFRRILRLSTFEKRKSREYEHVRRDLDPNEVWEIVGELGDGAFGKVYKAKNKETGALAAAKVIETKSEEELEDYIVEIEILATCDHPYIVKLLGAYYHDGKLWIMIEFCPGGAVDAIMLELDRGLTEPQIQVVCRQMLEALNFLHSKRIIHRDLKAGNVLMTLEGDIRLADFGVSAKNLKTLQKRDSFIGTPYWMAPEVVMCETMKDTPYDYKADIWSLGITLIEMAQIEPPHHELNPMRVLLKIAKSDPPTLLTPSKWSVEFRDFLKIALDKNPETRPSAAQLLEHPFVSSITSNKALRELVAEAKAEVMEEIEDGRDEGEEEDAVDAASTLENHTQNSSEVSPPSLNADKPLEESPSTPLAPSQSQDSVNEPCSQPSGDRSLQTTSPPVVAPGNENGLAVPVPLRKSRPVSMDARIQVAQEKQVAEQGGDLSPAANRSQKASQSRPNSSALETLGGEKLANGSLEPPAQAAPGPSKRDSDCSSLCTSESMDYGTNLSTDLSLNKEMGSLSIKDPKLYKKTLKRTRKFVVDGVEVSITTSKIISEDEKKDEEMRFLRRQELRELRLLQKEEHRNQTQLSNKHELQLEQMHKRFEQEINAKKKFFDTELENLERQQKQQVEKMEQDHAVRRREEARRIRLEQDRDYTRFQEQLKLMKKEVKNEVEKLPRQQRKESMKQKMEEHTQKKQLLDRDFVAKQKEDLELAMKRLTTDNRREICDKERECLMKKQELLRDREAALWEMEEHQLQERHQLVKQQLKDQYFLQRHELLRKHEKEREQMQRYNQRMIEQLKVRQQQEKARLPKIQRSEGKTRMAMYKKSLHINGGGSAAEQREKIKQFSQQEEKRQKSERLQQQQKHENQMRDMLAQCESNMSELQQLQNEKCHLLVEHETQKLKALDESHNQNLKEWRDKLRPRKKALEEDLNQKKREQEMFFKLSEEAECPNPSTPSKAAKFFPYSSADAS

Compound `Cc1cc(F)ccc1NC(=O)C1(C(=O)Nc2cccc(-c3c[nH]c4ncnc(N5CCOCC5)c34)c2)CC1` [Compound 24] came in with a concentration for half-maximal inhibition (IC50) in experiment [1] of 1190 ± 231 nM. For the same compound, the “normalized response (LRRK2 activity)” value in experiment [1] (log[inhibitor(mol)] -5.12494) is 6.394% and 5.578%; in experiment [1] (log[inhibitor(mol)] -5.60206), 30.1593% and 37.3588%; in experiment [1] (log[inhibitor(mol)] -6.30103), 66.9115% and 76.4371%; in experiment [1] (log[inhibitor(mol)] -6.90309) it was 91.3884% and 99.1893%; in experiment [1] (log[inhibitor(mol)] -7.30103) it was 98.0109% and 87.3375%; in experiment [1] (log[inhibitor(mol)] -7.60206) it was 102.16% and 100.865%. For the same compound, the “normalized response (LRRK2 activity)” value is 98.4037% and 99.8706% in experiment [1] (log[inhibitor(mol)] -8.09691); 99.6435% and 101.436% in experiment [1] (log[inhibitor(mol)] -8.61979); 101.258% and 60.2522% in experiment [1] (log[inhibitor(mol)] -9.39794). Moreover, the dTm was 6.95 K in experiment [2], 8.23 K in experiment [3], 0.41 K in experiment [4] and 3.82 K in experiment [5].
In turn, `O=C(Nc1cccc(-c2c[nH]c3ncnc(N4CCOCC4)c23)c1)C1(C(=O)Nc2cc(Br)c(F)cc2F)CC1` [Compound 25] came in with an IC50 in experiment [1] of 818 ± 56 nM. Besides, the “normalized response (LRRK2 activity)” value in experiment [1] (log[inhibitor(mol)] -4.82391) was 4.179% and 4.042%; in experiment [1] (log[inhibitor(mol)] -5.12494), 6.886% and 2.089%; in experiment [1] (log[inhibitor(mol)] -5.60206) it was 16.9372% and 25.3493%; in experiment [1] (log[inhibitor(mol)] -6.30103), 61.5503% and 64.2768%; in experiment [1] (log[inhibitor(mol)] -6.90309), 87.889% and 62.9679%; in experiment [1] (log[inhibitor(mol)] -7.30103) it was 95.1314% and 96.4468%. For the same compound, the “normalized response (LRRK2 activity)” value in experiment [1] (log[inhibitor(mol)] -7.60206) was 95.9663% and 100.454%; in experiment [1] (log[inhibitor(mol)] -8.09691), 95.3684% and 96.0989%; in experiment [1] (log[inhibitor(mol)] -8.61979), 98.0471% and 98.2841%; in experiment [1] (log[inhibitor(mol)] -9.09691), 97.884% and 98.6428%; in experiment [1] (log[inhibitor(mol)] -9.39794), 99.7517% and 70.9452%. Moreover, the dTm in experiment [2] is 1.39 K; in experiment [3] it was 11.10 K; in experiment [4], 0.31 K; in experiment [5], 0.83 K.
For the compound `O=C(Nc1cccc(-c2c[nH]c3ncnc(N4CCOCC4)c23)c1)C1(C(=O)Nc2ccc(F)c(Br)c2F)CC1` [Compound 26], the IC50 in experiment [1] was found to be 134 ± 5 nM. Further, the “normalized response (LRRK2 activity)” value in experiment [1] (log[inhibitor(mol)] -4.82391) was 1.939% and 8.5359%; in experiment [1] (log[inhibitor(mol)] -5.12494), 9.123% and 11.3015%; in experiment [1] (log[inhibitor(mol)] -5.60206) it was 44.4326% and 42.5431%; in experiment [1] (log[inhibitor(mol)] -6.30103), 13.6454% and 21.2987%; in experiment [1] (log[inhibitor(mol)] -6.90309) it was 53.1512% and 54.1949%; in experiment [1] (log[inhibitor(mol)] -7.30103), 78.8268% and 70.6625%. The “normalized response (LRRK2 activity)” value was 83.0818% and 80.8923% in experiment [1] (log[inhibitor(mol)] -7.60206); 91.3569% and 90.9395% in experiment [1] (log[inhibitor(mol)] -8.09691); 93.5464% and 85.6887% in experiment [1] (log[inhibitor(mol)] -8.61979); 97.2382% and 103.098% in experiment [1] (log[inhibitor(mol)] -9.09691); 97.1774% and 94.1421% in experiment [1] (log[inhibitor(mol)] -9.39794). Further, the dTm was 4.55 K in experiment [2], 12.57 K in experiment [3], 0.19 K in experiment [4] and 3.50 K in experiment [5].
Turning to `O=C(Nc1cc(F)cc(Br)c1)C1(C(=O)Nc2cccc(-c3c[nH]c4ncnc(N5CCOCC5)c34)c2)CC1` [Compound 27], the IC50 in experiment [1] is 1960 ± 652 nM. The “normalized response (LRRK2 activity)” value in experiment [1] (log[inhibitor(mol)] -4.82391) was 9.9531% and 0.1682%; in experiment [1] (log[inhibitor(mol)] -5.12494), 15.329% and 15.4402%; in experiment [1] (log[inhibitor(mol)] -5.60206), 51.4182% and 54.957%; in experiment [1] (log[inhibitor(mol)] -6.30103), 74.2368% and 85.6074%; in experiment [1] (log[inhibitor(mol)] -6.90309) it was 93.8115% and 94.6865%; in experiment [1] (log[inhibitor(mol)] -7.30103), 93.6955% and 101.281%. Besides, the “normalized response (LRRK2 activity)” value in experiment [1] (log[inhibitor(mol)] -7.60206) is 91.0994% and 95.9483%; in experiment [1] (log[inhibitor(mol)] -8.09691), 92.7092% and 88.0778%; in experiment [1] (log[inhibitor(mol)] -8.61979) it was 94.7784% and 93.0186%; in experiment [1] (log[inhibitor(mol)] -9.09691) it was 131.133% and 93.2265%; in experiment [1] (log[inhibitor(mol)] -9.39794), 94.4883% and 98.7958%. Besides, the dTm is reported as 4.18 K in experiment [2], 10.11 K in experiment [3], -0.23 K in experiment [4] and 3.03 K in experiment [5].
As for `CC(C)(C)c1cc(NC(=O)Nc2cccc(-c3c[nH]c4ncnc(N5CCOCC5)c34)c2)n(-c2ccc3ncccc3c2)n1` [Compound 28], 59.7 ± 2.9 nM corresponded to half-maximal inhibition in experiment [1] (IC50). Also, the “normalized response (LRRK2 activity)” value in experiment [1] (log[inhibitor(mol)] -4.82391) is 3.992% and -4.217%; in experiment [1] (log[inhibitor(mol)] -5.12494), -4.603% and -7.6443%; in experiment [1] (log[inhibitor(mol)] -5.60206) it was -5.899% and -7.93%; in experiment [1] (log[inhibitor(mol)] -6.30103) it was -0.5957% and -1.998%; in experiment [1] (log[inhibitor(mol)] -6.90309), 20.6807% and 19.3416%; in experiment [1] (log[inhibitor(mol)] -7.30103) it was 54.9087%. In addition, the “normalized response (LRRK2 activity)” value in experiment [1] (log[inhibitor(mol)] -7.60206) was 83.9541% and 76.0062%; in experiment [1] (log[inhibitor(mol)] -8.09691), 102.755% and 100.691%; in experiment [1] (log[inhibitor(mol)] -8.61979) it was 109.195% and 109.069%; in experiment [1] (log[inhibitor(mol)] -9.09691), 110.935% and 112.883%; in experiment [1] (log[inhibitor(mol)] -9.39794) it was 72.3369% and 118.777%. The dTm stood at 16.99 K in experiment [2], 20.14 K in experiment [3], 7.41 K in experiment [4] and 9.37 K in experiment [5].
